Test system: RAW 264.7 cells
Experiment: Quantitative cell-permeability of FITC-labeled aMTD- or rPeptide-fused CRA recombinant proteins (flow cytometry)
Format: cell-based
Summary of the method: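 Uptake of fluorescently labeled, peptide-fused cargo proteins was quantified by flow cytometry (Guava, Millipore) and analyzed in FlowJo software. RAW 264.7 cells received 10 μM FITC-labeled protein for 1 hour at 37° C., were rinsed three times with cold PBS, and were trypsinized with 0.25% tripsin/EDTA for 20 minutes at 37° C. to remove bound protein before measurement. Permeability was expressed relative to reference proteins.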

[1] = cell-permeability of aMTD-fused CRA recombinant protein relative to negative control (A: rP38)
[2] = cell-permeability of aMTD-fused CRA recombinant protein relative to reference CPP (B: MTM12)
[3] = cell-permeability of aMTD-fused CRA recombinant protein relative to reference CPP (C: MTD85)
[4] = cell-permeability relative to negative control rP38 (A type), aMTD-fused CRA recombinant protein, 10 μM FITC-labeled, 1 hour, 37° C., RAW 264.7 cells
[5] = cell-permeability relative to reference CPP MTD85 (C type), aMTD-fused CRA recombinant protein, 10 μM FITC-labeled, 1 hour, 37° C., RAW 264.7 cells
[6] = cell-permeability relative to reference CPP MTM12 (B type), aMTD-fused CRA recombinant protein, 10 μM FITC-labeled, 1 hour, 37° C., RAW 264.7 cells

Substance	Relative Ratio (Fold) A [1] [Fold]	Relative Ratio (Fold) B [2] [Fold]	Relative Ratio (Fold) C [3] [Fold]	Relative Ratio (Fold) A [4] [Fold]	Relative Ratio (Fold) C [5] [Fold]	Relative Ratio (Fold) B [6] [Fold]
826 (LVALAAPIIAVP; Amino acid Sequence of aMTD826) [compound 826]	49.2	32.9	18.6			
827 (IAAVLAAPALVP; Amino acid Sequence of aMTD827) [compound 827]	43.0	28.8	14.6			
828 (IALLAAPIIAVP; Amino acid Sequence of aMTD828) [compound 828]	36.8	24.6	12.4			
829 (AALALVAPVIVP; Amino acid Sequence of aMTD829) [compound 829]	44.8	30.0	15.2			
830 (IALVAAPVALVP; Amino acid Sequence of aMTD830) [compound 830]				5.3	1.8	3.5
831 (IIVAVAPAAIVP; Amino acid Sequence of aMTD831) [compound 831]	46.3	31.0	15.7			
832 (AVAAIVPVIVAP; Amino acid Sequence of aMTD832) [compound 832]				4.1	1.4	2.7
843 (AVLVLVAPAAAP; Amino acid Sequence of aMTD843) [compound 843]	26.4	17.7	8.9			
844 (VVALLAPLIAAP; Amino acid Sequence of aMTD844) [compound 844]	11.2	7.5	3.8			
845 (AAVVIAPLLAVP; Amino acid Sequence of aMTD845) [compound 845]	35.8	24.0	12.1			
846 (IAVAVAAPLLVP; Amino acid Sequence of aMTD846) [compound 846]	11.7	6.8	4.0			
847 (LVAIVVLPAVAP; Amino acid Sequence of aMTD847) [compound 847]	50.2	33.4	16.9			
848 (AVAIVVLPAVAP; Amino acid Sequence of aMTD848) [compound 848]	10.0	6.7	3.4			
849 (AVILLAPLIAAP; Amino acid Sequence of aMTD849) [compound 849]	8.3	4.8	2.9			
850 (LVIALAAPVALP; Amino acid Sequence of aMTD850) [compound 850]	8.8	5.9	3.0			
851 (VLAVVLPAVALP; Amino acid Sequence of aMTD851) [compound 851]	96.6	64.7	32.7			
852 (VLAVAAPAVLLP; Amino acid Sequence of aMTD852) [compound 852]	84.6	56.6	28.6			

Substance	Relative Ratio (Fold) A [1] [Fold]	Relative Ratio (Fold) B [2] [Fold]	Relative Ratio (Fold) C [3] [Fold]	Relative Ratio (Fold) A [4] [Fold]	Relative Ratio (Fold) C [5] [Fold]	Relative Ratio (Fold) B [6] [Fold]
863 (AAVVLLPIIAAP; Amino acid Sequence of aMTD863) [compound 863]	13.8	9.3	4.7			
865 (AVLVIAVPAIAP; Amino acid Sequence of aMTD865) [compound 865]	11.3	7.5	3.8			
867 (ALLVVIAPLAAP; Amino acid Sequence of aMTD867) [compound 867]	13.2	8.8	4.4			
868 (VLVAAILPAAIP; Amino acid Sequence of aMTD868) [compound 868]	14.9	10.0	5.0			
870 (VLVAAVLPIAAP; Amino acid Sequence of aMTD870) [compound 870]	16.6	11.1	5.6			
872 (VLAAAVLPLVVP; Amino acid Sequence of aMTD872) [compound 872]				7.3	2.5	4.9
875 (AIAIVVPAVAVP; Amino acid Sequence of aMTD875) [compound 875]	13.8	9.2	4.7			
878 (IVALVAPAAVVP; Amino acid Sequence of aMTD878) [compound 878]	10.3	6.9	3.5			
881 (AALIVVPAVAVP; Amino acid Sequence of aMTD881) [compound 881]	12.7	8.5	4.3			
882 (AIALVVPAVAVP; Amino acid Sequence of aMTD882) [compound 882]	35.0	23.4	11.8			
883 (LAIVPAAIAALP; Amino acid Sequence of aMTD883) [compound 883]				3.0	1.0	2.0
885 (LVAIAPAVAVLP; Amino acid Sequence of aMTD885) [compound 885]	28.3	19.0	9.6			
887 (VLAVAPAVAVLP; Amino acid Sequence of aMTD887) [compound 887]	7.7	5.1	2.6			
888 (ILAVVAIPAAAP; Amino acid Sequence of aMTD888) [compound 888]	71.0	47.5	24.0			
889 (ILVAAAPIAALP; Amino acid Sequence of aMTD889) [compound 889]	30.3	20.3	10.3			
891 (ILAVAAIPAALP; Amino acid Sequence of aMTD891) [compound 891]	44.7	29.9	15.1			
893 (VIAIPAILAAAP; Amino acid Sequence of aMTD893) [compound 893]				7.0	2.4	4.7
